Experiments:
[1] = biological target: Poly [ADP-ribose] polymerase 1 (Homo sapiens, UniProt P09874); experiment: Inhibition of PARP1 (unknown origin) incubated for 1 hr by ELISA
[2] = test system: MOLM-13; experiment: Antiproliferative activity against human MOLM-13 cells assessed as inhibition of cell proliferation incubated for 48 hrs by CCK-8 assay; type: functional, cell-based; conditions: MOLM-13, 48 h
[3] = test system: MV4-11; experiment: Antiproliferative activity against human MV4-11 cells assessed as inhibition of cell proliferation incubated for 48 hrs by CCK-8 assay; type: functional, cell-based; conditions: MV4-11, 48 h
[4] = test system: MDA-MB-231; experiment: Induction of apoptosis in human MDA-MB-231 cells assessed as viable cell at 1 uM incubated for 24 hrs by Annexin V-FITC/PI staining based analysis (reference value: 96.3 %); type: functional
[5] = test system: MDA-MB-231; experiment: Induction of apoptosis in human MDA-MB-231 cells assessed as early apoptotic cell at 1 uM incubated for 24 hrs by Annexin V-FITC/PI staining based analysis (reference value: 0.96 %); type: functional
[6] = test system: MDA-MB-231; experiment: Induction of apoptosis in human MDA-MB-231 cells assessed as late apoptotic cell at 1 uM incubated for 24 hrs by Annexin V-FITC/PI staining based analysis (reference value: 2.61 %); type: functional
[7] = test system: MDA-MB-231; experiment: Induction of apoptosis in human MDA-MB-231 cells assessed as necrotic cell at 1 uM incubated for 24 hrs by Annexin V-FITC/PI staining based analysis (reference value: 0.10 %); type: functional
[8] = test system: MDA-MB-231; experiment: Induction of apoptosis in human MDA-MB-231 cells assessed as viable cell at 0.2 uM incubated for 24 hrs by Annexin V-FITC/PI staining based analysis (reference value: 96.3 %); type: functional
[9] = test system: MDA-MB-231; experiment: Induction of apoptosis in human MDA-MB-231 cells assessed as early apoptotic cell at 0.2 uM incubated for 24 hrs by Annexin V-FITC/PI staining based analysis (reference value: 0.96 %); type: functional
[10] = test system: MDA-MB-231; experiment: Induction of apoptosis in human MDA-MB-231 cells assessed as late apoptotic cell at 0.2 uM incubated for 24 hrs by Annexin V-FITC/PI staining based analysis (reference value: 2.61 %); type: functional
[11] = test system: MDA-MB-231; experiment: Induction of apoptosis in human MDA-MB-231 cells assessed as necrotic cell at 0.2 uM incubated for 24 hrs by Annexin V-FITC/PI staining based analysis (reference value: 0.10 %); type: functional
[12] = test system: MDA-MB-231; experiment: Induction of apoptosis in human MDA-MB-231 cells assessed as viable cell at 10 uM incubated for 24 hrs by Annexin V-FITC/PI staining based analysis (reference value: 96.3 %); type: functional
[13] = test system: MDA-MB-231; experiment: Induction of apoptosis in human MDA-MB-231 cells assessed as early apoptotic cell at 10 uM incubated for 24 hrs by Annexin V-FITC/PI staining based analysis (reference value: 0.96 %); type: functional
[14] = test system: MDA-MB-231; experiment: Induction of apoptosis in human MDA-MB-231 cells assessed as late apoptotic cell at 10 uM incubated for 24 hrs by Annexin V-FITC/PI staining based analysis (reference value: 2.61 %); type: functional
[15] = test system: MDA-MB-231; experiment: Induction of apoptosis in human MDA-MB-231 cells assessed as necrotic cell at 10 uM incubated for 24 hrs by Annexin V-FITC/PI staining based analysis (reference value: 0.10 %); type: functional
[16] = test system: MDA-MB-231; experiment: Induction of cell cycle arrest in human MDA-MB-231 cells assessed as accumulation of cells at G1 phase at 1 uM incubated for 24 hrs by PI staining based flow cytometric analysis (reference value: 58.1%); type: functional
[17] = test system: MDA-MB-231; experiment: Induction of cell cycle arrest in human MDA-MB-231 cells assessed as accumulation of cells at S phase at 1 uM incubated for 24 hrs by PI staining based flow cytometric analysis (reference value: 29.2%); type: functional
[18] = test system: MDA-MB-231; experiment: Induction of cell cycle arrest in human MDA-MB-231 cells assessed as accumulation of cells at G2/M phase at 1 uM incubated for 24 hrs by PI staining based flow cytometric analysis (reference value: 11.3%); type: functional
[19] = test system: MDA-MB-231; experiment: Induction of cell cycle arrest in human MDA-MB-231 cells assessed as accumulation of cells at G1 phase at 0.2 uM incubated for 24 hrs by PI staining based flow cytometric analysis (reference value: 58.1%); type: functional
[20] = test system: MDA-MB-231; experiment: Induction of cell cycle arrest in human MDA-MB-231 cells assessed as accumulation of cells at S phase at 0.2 uM incubated for 24 hrs by PI staining based flow cytometric analysis (reference value: 29.2%); type: functional
[21] = test system: MDA-MB-231; experiment: Induction of cell cycle arrest in human MDA-MB-231 cells assessed as accumulation of cells at G2/M phase at 0.2 uM incubated for 24 hrs by PI staining based flow cytometric analysis (reference value: 11.3%); type: functional
[22] = test system: MDA-MB-231; experiment: Induction of cell cycle arrest in human MDA-MB-231 cells assessed as accumulation of cells at G1 phase at 10 uM incubated for 24 hrs by PI staining based flow cytometric analysis (reference value: 58.1%); type: functional
[23] = test system: MDA-MB-231; experiment: Induction of cell cycle arrest in human MDA-MB-231 cells assessed as accumulation of cells at S phase at 10 uM incubated for 24 hrs by PI staining based flow cytometric analysis (reference value: 29.2%); type: functional
[24] = test system: MDA-MB-231; experiment: Induction of cell cycle arrest in human MDA-MB-231 cells assessed as accumulation of cells at G2/M phase at 10 uM incubated for 24 hrs by PI staining based flow cytometric analysis (reference value: 11.3%); type: functional
[25] = Metabolic stability in rat liver microsomes assessed as half life at 1 mg/ml incubated for 60 min in presence of NADPH by HPLC analysis; type: ADME, Microsome
[26] = Metabolic stability in artificial gastric fluid assessed as parent compound remaining at 1 mg/ml incubated for 8 hrs by HPLC analysis; type: ADME; conditions: read-out: Stability
[27] = Metabolic stability in artificial intestinal fluid assessed as parent compound remaining at 1 mg/ml incubated for 8 hrs by HPLC analysis; type: ADME; conditions: read-out: Stability
[28] = Metabolic stability in plasma assessed as parent compound remaining incubated for 3 hrs by HPLC analysis; type: ADME, cell-free; conditions: read-out: Stability
[29] = biological target: Cyclin-dependent kinase 9 (Homo sapiens, UniProt P50750)
Sequence of Cyclin-dependent kinase 9 (P50750 whole entry): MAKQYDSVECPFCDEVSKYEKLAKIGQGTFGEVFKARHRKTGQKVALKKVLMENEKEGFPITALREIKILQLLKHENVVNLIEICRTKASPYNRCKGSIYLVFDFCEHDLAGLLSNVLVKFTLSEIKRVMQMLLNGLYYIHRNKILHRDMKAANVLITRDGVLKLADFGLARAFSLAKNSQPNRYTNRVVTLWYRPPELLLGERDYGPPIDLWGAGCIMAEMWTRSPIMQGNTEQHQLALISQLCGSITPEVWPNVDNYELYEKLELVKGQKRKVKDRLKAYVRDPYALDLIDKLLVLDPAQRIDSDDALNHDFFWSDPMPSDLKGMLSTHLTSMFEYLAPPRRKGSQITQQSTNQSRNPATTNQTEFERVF
Description: Inhibition of CDK9 (unknown origin) using lipid substrate incubated for 40 mins in presence of ATP by kinase-Glo plus luminescence assay

[30] = test system: HeLa; experiment: cells; conditions: Homo sapiens, 48 h
Description: Antiproliferative activity against human HeLa cells assessed as inhibition of cell proliferation incubated for 48 hrs by CCK-8 assay

[31] = test system: HCT-116; experiment: cells; conditions: Homo sapiens, HCT-116, 48 h
Description: Antiproliferative activity against human HCT-116 cells assessed as inhibition of cell proliferation incubated for 48 hrs by CCK-8 assay

[32] = test system: MCF7; experiment: cells; conditions: Homo sapiens, MCF7, 48 h
Description: Antiproliferative activity against human MCF7 cells assessed as inhibition of cell proliferation incubated for 48 hrs by CCK-8 assay

[33] = test system: MDA-MB-231; experiment: cells; conditions: Homo sapiens, MDA-MB-231, 48 h
Description: Antiproliferative activity against human MDA-MB-231 cells assessed as inhibition of cell proliferation incubated for 48 hrs by CCK-8 assay

Sequence of Poly [ADP-ribose] polymerase 1 (P09874 whole entry): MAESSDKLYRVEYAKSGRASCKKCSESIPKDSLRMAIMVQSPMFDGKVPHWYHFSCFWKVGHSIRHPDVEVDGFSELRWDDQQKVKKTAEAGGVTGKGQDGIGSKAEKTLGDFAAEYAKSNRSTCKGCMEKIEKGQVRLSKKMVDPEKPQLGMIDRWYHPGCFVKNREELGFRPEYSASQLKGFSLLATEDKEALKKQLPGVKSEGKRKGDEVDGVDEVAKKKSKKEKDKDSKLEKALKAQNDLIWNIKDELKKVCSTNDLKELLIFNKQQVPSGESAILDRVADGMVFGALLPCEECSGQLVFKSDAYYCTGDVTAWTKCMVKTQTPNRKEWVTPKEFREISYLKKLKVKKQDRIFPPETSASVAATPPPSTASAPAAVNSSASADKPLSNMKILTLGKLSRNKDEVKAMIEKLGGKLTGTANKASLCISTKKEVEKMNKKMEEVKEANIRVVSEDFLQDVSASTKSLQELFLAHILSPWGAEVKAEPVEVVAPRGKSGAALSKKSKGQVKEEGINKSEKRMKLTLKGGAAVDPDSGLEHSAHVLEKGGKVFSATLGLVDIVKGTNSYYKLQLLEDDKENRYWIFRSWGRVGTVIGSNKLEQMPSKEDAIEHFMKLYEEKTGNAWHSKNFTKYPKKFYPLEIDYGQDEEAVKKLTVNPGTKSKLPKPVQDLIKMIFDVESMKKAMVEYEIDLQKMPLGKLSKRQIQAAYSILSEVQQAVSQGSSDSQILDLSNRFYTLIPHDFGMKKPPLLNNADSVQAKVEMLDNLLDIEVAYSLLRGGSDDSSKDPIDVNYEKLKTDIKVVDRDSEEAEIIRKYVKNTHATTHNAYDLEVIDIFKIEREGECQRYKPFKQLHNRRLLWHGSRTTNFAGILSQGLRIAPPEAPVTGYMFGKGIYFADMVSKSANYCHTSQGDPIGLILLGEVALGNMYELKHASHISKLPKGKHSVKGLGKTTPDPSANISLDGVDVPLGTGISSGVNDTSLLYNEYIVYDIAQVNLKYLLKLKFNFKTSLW

For `CCOc1cc(F)ccc1-c1cc(Nc2cc(CN3CCN(C(=O)c4cc(Cc5n[nH]c(=O)c6ccccc56)ccc4F)CC3)ccn2)ncn1`, the IC50 [1] was 6 nM, the IC50 [2] was 690 nM and the IC50 [3] was 3830 nM. The Activity [4] was 82.8%, the Activity [5] was 7.87% and the Activity [6] was 7.54%. It also gave an Activity [7] of 1.78%, an Activity [8] of 94.9% and an Activity [9] of 1.64%. It also gave an Activity [10] of 2.67%, an Activity [11] of 0.81% and an Activity [12] of 76.1%. The Activity [13] was 14.8%, the Activity [14] was 8.01% and the Activity [15] was 1.07%. It also gave an Activity [16] of 34.8%, an Activity [17] of 31.1% and an Activity [18] of 36.4%. The Activity [19] was 33.1%, the Activity [20] was 40% and the Activity [21] was 27.9%. The Activity [22] was 25.3%, the Activity [23] was 45.2% and the Activity [24] was 29.1%. For the same molecule, the half-life at 1 mg/ml [25] was 2.44 h, the remaining at 8 h, 1 mg/ml [26] was 94.1% and the remaining at 8 h, 1 mg/ml [27] was 96.7%. For the same molecule, the remaining at 3 h [28] was 94.6%, the IC50 [29] was 15 nM and the IC50 [30] was 250 nM. It also gave an IC50 [31] of 130 nM, an IC50 [32] of 670 nM and an IC50 [33] of 440 nM.

With `COc1cc(F)ccc1-c1cc(Nc2cc(CN3CCN(C(=O)c4cc(Cc5n[nH]c(=O)c6ccccc56)ccc4F)CC3)ccn2)ncc1F` the IC50 [1] was 43 nM and the IC50 [29] was 17 nM.

For `COc1cc(F)ccc1-c1nc(Nc2cc(CN3CCN(C(=O)c4cc(Cc5n[nH]c(=O)c6ccccc56)ccc4F)CC3)ccn2)ncc1F`, the IC50 [1] was 91 nM and the IC50 [29] was 2350 nM.

In the case of `O=C(c1cc(Cc2n[nH]c(=O)c3ccccc23)ccc1F)N1CCN(Cc2ccnc(Nc3cc(-c4ccc(F)c5ccoc45)ncn3)c2)CC1`, the IC50 [1] is reported as 107 nM and the IC50 [29] is reported as 118 nM.

Work on `COc1cc(F)ccc1-c1cc(Nc2cc(CS(C)(=N)=O)ccn2)ncc1F` (stereo not given) [ENITOCICLIB] yielded an IC50 [2] of 80 nM, an IC50 [3] of 110 nM and an Activity [4] of 82.1%. For the same molecule, the Activity [5] was 6.48%, the Activity [6] was 7.66% and the Activity [7] was 3.8%. For the same molecule, the Activity [16] was 54.9%, the Activity [17] was 29.1% and the Activity [18] was 16.5%. It also gave a half-life at 1 mg/ml [25] of 5.78 h, a remaining at 8 h, 1 mg/ml [26] of 101% and a remaining at 8 h, 1 mg/ml [27] of 97.4%. The remaining at 3 h [28] was 96%, the IC50 [30] was 200 nM and the IC50 [31] was 180 nM. For the same molecule, the IC50 [32] was 50 nM and the IC50 [33] was 270 nM.

With `COc1ccc(F)cc1-c1cc(Nc2cc(CN3CCN(C(=O)c4cc(Cc5n[nH]c(=O)c6ccccc56)ccc4F)CC3)ccn2)ncc1F` the IC50 [1] was 48 nM and the IC50 [29] was 31 nM.

In the case of `COc1cccc(F)c1-c1cc(Nc2cc(CN3CCN(C(=O)c4cc(Cc5n[nH]c(=O)c6ccccc56)ccc4F)CC3)ccn2)ncc1F`, the IC50 [1] is reported as 16 nM and the IC50 [29] is reported as 61 nM.

Source: ChEMBL document CHEMBL6114988, “Design, synthesis and biological evaluation of dual CDK9/PARP inhibitors for the treatment of cancer” (Eur J Med Chem, 2025)
